# Test results published in US8426202B2, “Cell culture medium” (Cellca GmbH, priority 2005, dated 2013).
# Where “and” joins values, the source holds several entries; their conditions need not be identical. Identical values can stand only once. Like-named read-outs stand apart in the source and are kept apart here.
# Tests used:
# [1] = tested on: CHO cell line that expresses an antibody; assay: Batch experiment with the substances according to the invention (Example 1); format: cell-based, Chinese hamster; conditions: batch mode, substance 0.5-1 g/l, basal medium glucose 4.7 g/l, glutamine […]
# Experimental: Cells were stored in the gas phase of liquid nitrogen. One to two ampoules were thawed in nutrient medium preheated to 37° C. and transferred to spinner bottles, shaking flasks or T-bottles. In the first few days of cultivation the medium was changed, depending on the clone.
# Depending on the clone, cells were split either every second day or every third day or after two and three days alternately into new medium, i.e. a portion of the cell suspension was removed from culture and a smaller portion of the cell suspension was reused as inoculum for the next culture. This inoculum was made up with fresh prewarmed nutrient medium. Cells were incubated at 37° C. in an incubator with a CO2 atmosphere. An alternative for incubating cells was cultivation in an incubation chamber at 37° C., in this way cells were held in culture for several passages. A passage means a cultivation time of two to three days. At various points of time, cell suspension was taken from strain maintenance and used as inoculum for experiments. The experiments were carried out in various cultivation systems, for example in spinner bottles, T-bottles, shaking flasks, culture tubes or in controlled bioreactors.
# (§1) Feed took place at regular intervals.
# [2] = tested on: CHO cell line that expresses an antibody; assay: Fed-batch experiment with the substances according to the invention (Example 2, Table 2); format: cell-based, Chinese hamster; design: Viabil.: concentration or dose not given beside the values
# Excerpt: as §1
# [3] = tested on: CHO cell line that expresses an antibody; conditions: fed-batch, glutamine-free basal and feed media, substance 0.5-1 g/l
# Excerpt: (§2) A CHO cell line that expresses an antibody was used for the experiments.
# This is a serum-free, protein-free nutrient medium. It is a ready-made, sterile-filtered nutrient medium.
# After 1-4 days the cells were supplemented with a feed medium, i.e. the process was switched to fed-batch mode. Feed took place at regular intervals. In fed-batch experiments, a protein-free and serum-free feed medium from the company HyQ (R05.2 supplement, Cat. No.: SH30584.04, Lot No.: APF21457G) was used.
# All substances (chemicals) used according to the invention were obtained from the company Sigma and stock solutions were prepared from them. From the stock solutions, the substances were put at the desired final concentration in culture tubes. The various culture tubes prepared in this way were finally inoculated with the antibody-producing CHO-clone at a target inoculation cell concentration (1-3×10^5/ml). For this, the corresponding amount of inoculum cells was calculated and the required amount of inoculum cell suspension was centrifuged. […] In this way the desired inoculation cell concentration was adjusted in the cell suspension being investigated. The cell suspension thus prepared was proportioned in the culture tubes, which were provided with the substances according to the invention beforehand. The culture tubes were incubated at 37° C., and 8% CO2 atmosphere, with shaking. The culture tubes were cultivated for 8-11 days in the batch mode or in the fed-batch mode. Samples for offline measurement of the variables were taken from the culture vessels at regular intervals, for example daily or on every third day. The metabolic variables and cell concentrations of the samples were measured. Cell concentration and cell vitality were measured with a CeDex instrument. The metabolic variables (glucose, lactate, glutamine and ammonium) were determined with an analyzer (BioProfile 100).
# (§3) The following final concentrations of the substances according to the invention were established in a nutrient medium after inoculation:
# The substances according to the invention were tested under fed-batch conditions. […] The feed medium used was from the company HyQ (R05.2 supplement, Cat. No.: SH30584.04, Lot No.: APF21457G). The feed medium was glutamine-free (Table 4).
# [4] = tested on: CHO cell line that expresses an antibody; conditions: fed-batch, basal medium 4 mM glutamine, feed with 3 g/l Ala-Gln and 3 g/l Gly-Gln, substance 0.5-1 g/l
# Experimental: as §2
# The experiments were carried out either in batch mode or in fed-batch mode. When the process was carried out in fed-batch mode, the process was first started in batch mode in the above-mentioned basal medium and cells were cultivated in this manner for 1-4 days. After 1-4 days the cells were supplemented with a feed medium, i.e. the process was switched to fed-batch mode. Feed took place at regular intervals. In fed-batch experiments, a protein-free and serum-free feed medium from the company HyQ (R05.2 supplement, Cat. No.: SH30584.04, Lot No.: APF21457G) was used.
# From the stock solutions, the substances were put at the desired final concentration in culture tubes. The various culture tubes prepared in this way were finally inoculated with the antibody-producing CHO-clone at a target inoculation cell concentration (1-3×10^5/ml). For this, the corresponding amount of inoculum cells was calculated and the required amount of inoculum cell suspension was centrifuged. […] In this way the desired inoculation cell concentration was adjusted in the cell suspension being investigated. The cell suspension thus prepared was proportioned in the culture tubes, which were provided with the substances according to the invention beforehand. The culture tubes were incubated at 37° C., and 8% CO2 atmosphere, with shaking. The culture tubes were cultivated for 8-11 days in the batch mode or in the fed-batch mode. Samples for offline measurement of the variables were taken from the culture vessels at regular intervals, for example daily or on every third day. The metabolic variables and cell concentrations of the samples were measured. Cell concentration and cell vitality were measured with a CeDex instrument. The metabolic variables (glucose, lactate, glutamine and ammonium) were determined with an analyzer (BioProfile 100).
# as §3
# The substances according to the invention were tested under fed-batch conditions. […] The feed medium used was from the company HyQ (R05.2 supplement, Cat. No.: SH30584.04, Lot No.: APF21457G). 3 g/l alanyl-glutamine (Ala-Gin) and 3 g/l glycyl-glutamine (Gly-Gln) were added to the feed medium.
smiles,measurement,setting,value
O=C(O)CCCCC(=O)O [Adipic acid],Gln,[1]; day 0,1.53 mM
same,Glucose,[1]; day 0,4.69 g/L
same,Lactate,[1]; day 0,0 g/L
same,NH4,[1]; day 0,1.22 mM
same,Specific Glutamin consumption (Gln/VCD),[1]; day 0,1.49
same,Specific ammonia production (NH4/VCD),[1]; day 0,1.18
same,Specific glucose consumption (Gluc/VCD),[1]; day 0,4.55
same,Specific lactate production (Lac/VCD),[1]; day 0,0.00
same,Total Cell Density TCD,[1]; day 0,1.07 E5/ml
same,Viabil.,[1]; day 0,96%
same,Viable Cell Density (VCD),[1]; day 0,1.03 E5/ml
same,Gln,[1]; day 3,0.86 mM
same,Glucose,[1]; day 3,4.28 g/L
same,Lactate,[1]; day 3,0.62 g/L
same,NH4,[1]; day 3,1.81 mM
same,Specific Glutamin consumption (Gln/VCD),[1]; day 3,0.12
same,Specific ammonia production (NH4/VCD),[1]; day 3,0.25
same,Specific glucose consumption (Gluc/VCD),[1]; day 3,0.60
same,Specific lactate production (Lac/VCD),[1]; day 3,0.09
same,Total Cell Density TCD,[1]; day 3,7.2 E5/ml
same,Viabil.,[1]; day 3,99%
same,Viable Cell Density (VCD),[1]; day 3,7.1 E5/ml
same,Gln,[1]; day 6,0.22 mM
same,Glucose,[1]; day 6,2.95 g/L
same,Lactate,[1]; day 6,0.93 g/L
same,NH4,[1]; day 6,2.67 mM
same,Specific Glutamin consumption (Gln/VCD),[1]; day 6,0.01
same,Specific ammonia production (NH4/VCD),[1]; day 6,0.07
same,Specific glucose consumption (Gluc/VCD),[1]; day 6,0.07
same,Specific lactate production (Lac/VCD),[1]; day 6,0.02
same,Total Cell Density TCD,[1]; day 6,41.6 E5/ml
same,Viabil.,[1]; day 6,98%
same,Viable Cell Density (VCD),[1]; day 6,40.6 E5/ml
same,Gln,[1]; day 8,0.32 mM
same,Glucose,[1]; day 8,1.94 g/L
same,Lactate,[1]; day 8,0.95 g/L
same,NH4,[1]; day 8,3 mM
same,Specific Glutamin consumption (Gln/VCD),[1]; day 8,0.02
same,Specific ammonia production (NH4/VCD),[1]; day 8,0.20
same,Specific glucose consumption (Gluc/VCD),[1]; day 8,0.13
same,Specific lactate production (Lac/VCD),[1]; day 8,0.06
same,Total Cell Density TCD,[1]; day 8,17.1 E5/ml
same,Viabil.,[1]; day 8,87%
same,Viable Cell Density (VCD),[1]; day 8,14.9 E5/ml
same,Gln,[1]; day 11,0.49 mM
same,Glucose,[1]; day 11,0.89 g/L
same,Lactate,[1]; day 11,1.28 g/L
same,NH4,[1]; day 11,3.38 mM
same,Specific Glutamin consumption (Gln/VCD),[1]; day 11,0.05
same,Specific ammonia production (NH4/VCD),[1]; day 11,0.32
same,Specific glucose consumption (Gluc/VCD),[1]; day 11,0.08
same,Specific lactate production (Lac/VCD),[1]; day 11,0.12
same,Total Cell Density TCD,[1]; day 11,23 E5/ml
same,Viabil.,[1]; day 11,46%
same,Viable Cell Density (VCD),[1]; day 11,10.6 E5/ml
same,Total Cell Density TCD,"[2]; day 0, fed-batch",1.5 E5/ml
same,Viabil.,"[2]; day 0, fed-batch",91%
same,Viable Cell Density (VCD),"[2]; day 0, fed-batch",1.37 E5/ml
same,Total Cell Density TCD,"[2]; day 2, fed-batch",4.4 E5/ml
same,Viabil.,"[2]; day 2, fed-batch",98%
same,Viable Cell Density (VCD),"[2]; day 2, fed-batch",4.3 E5/ml
same,Total Cell Density TCD,"[2]; day 5, fed-batch",12 E5/ml and 11.8 E5/ml
same,Viabil.,"[2]; day 5, fed-batch",98% and 95%
same,Viable Cell Density (VCD),"[2]; day 5, fed-batch",11.7 E5/ml and 11.2 E5/ml
same,Total Cell Density TCD,"[2]; day 8, fed-batch",40 E5/ml and 36.3 E5/ml
same,Viabil.,"[2]; day 8, fed-batch",91% and 92%
O=C([O-])/C=C/C(=O)[O-].[Na+].[Na+] [Sodium fumarate],Gln,[1]; day 0,1.53 mM
same,Glucose,[1]; day 0,4.69 g/L
same,Lactate,[1]; day 0,0 g/L
same,NH4,[1]; day 0,1.22 mM
same,Specific Glutamin consumption (Gln/VCD),[1]; day 0,1.49
same,Specific ammonia production (NH4/VCD),[1]; day 0,1.18
same,Specific glucose consumption (Gluc/VCD),[1]; day 0,4.55
same,Specific lactate production (Lac/VCD),[1]; day 0,0.00
same,Total Cell Density TCD,[1]; day 0,1.07 E5/ml
same,Viabil.,[1]; day 0,96%
same,Viable Cell Density (VCD),[1]; day 0,1.03 E5/ml
same,Gln,[1]; day 3,0.72 mM
same,Glucose,[1]; day 3,3.98 g/L
same,Lactate,[1]; day 3,0.85 g/L
same,NH4,[1]; day 3,1.84 mM
same,Specific Glutamin consumption (Gln/VCD),[1]; day 3,0.10
same,Specific ammonia production (NH4/VCD),[1]; day 3,0.26
same,Specific glucose consumption (Gluc/VCD),[1]; day 3,0.57
same,Specific lactate production (Lac/VCD),[1]; day 3,0.12
same,Total Cell Density TCD,[1]; day 3,7.1 E5/ml
same,Viabil.,[1]; day 3,99%
same,Viable Cell Density (VCD),[1]; day 3,7 E5/ml
same,Gln,[1]; day 6,0.24 mM
same,Glucose,[1]; day 6,2.61 g/L
same,Lactate,[1]; day 6,1.19 g/L
same,NH4,[1]; day 6,2.49 mM
same,Specific Glutamin consumption (Gln/VCD),[1]; day 6,0.01
same,Specific ammonia production (NH4/VCD),[1]; day 6,0.06
same,Specific glucose consumption (Gluc/VCD),[1]; day 6,0.06
same,Specific lactate production (Lac/VCD),[1]; day 6,0.03
same,Total Cell Density TCD,[1]; day 6,41.5 E5/ml
same,Viabil.,[1]; day 6,98%
same,Viable Cell Density (VCD),[1]; day 6,40.6 E5/ml
same,Gln,[1]; day 8,0.37 mM
same,Glucose,[1]; day 8,1.68 g/L
same,Lactate,[1]; day 8,1.08 g/L
same,NH4,[1]; day 8,2.58 mM
same,Specific Glutamin consumption (Gln/VCD),[1]; day 8,0.02
same,Specific ammonia production (NH4/VCD),[1]; day 8,0.14
same,Specific glucose consumption (Gluc/VCD),[1]; day 8,0.09
same,Specific lactate production (Lac/VCD),[1]; day 8,0.06
same,Total Cell Density TCD,[1]; day 8,22.3 E5/ml
same,Viabil.,[1]; day 8,86%
same,Viable Cell Density (VCD),[1]; day 8,19.1 E5/ml
same,Gln,[1]; day 11,0.47 mM
same,Glucose,[1]; day 11,0.46 g/L
same,Lactate,[1]; day 11,1.46 g/L
same,NH4,[1]; day 11,3.06 mM
same,Specific Glutamin consumption (Gln/VCD),[1]; day 11,0.03
same,Specific ammonia production (NH4/VCD),[1]; day 11,0.21
same,Specific glucose consumption (Gluc/VCD),[1]; day 11,0.03
same,Specific lactate production (Lac/VCD),[1]; day 11,0.10
same,Total Cell Density TCD,[1]; day 11,26.2 E5/ml
same,Viabil.,[1]; day 11,55%
same,Viable Cell Density (VCD),[1]; day 11,14.3 E5/ml
same,Total Cell Density TCD,"[2]; day 0, fed-batch",1.5 E5/ml
same,Viabil.,"[2]; day 0, fed-batch",91%
same,Viable Cell Density (VCD),"[2]; day 0, fed-batch",1.37 E5/ml
same,Total Cell Density TCD,"[2]; day 2, fed-batch",3.6 E5/ml
same,Viabil.,"[2]; day 2, fed-batch",97%
same,Viable Cell Density (VCD),"[2]; day 2, fed-batch",3.5 E5/ml
same,Total Cell Density TCD,"[2]; day 5, fed-batch",13.9 E5/ml and 13.2 E5/ml
same,Viabil.,"[2]; day 5, fed-batch",96% and 97%
same,Viable Cell Density (VCD),"[2]; day 5, fed-batch",13.4 E5/ml and 12.8 E5/ml
same,Total Cell Density TCD,"[2]; day 8, fed-batch",43.9 E5/ml and 43.8 E5/ml
same,Viabil.,"[2]; day 8, fed-batch",92%
same,Viable Cell Density (VCD),"[2]; day 8, fed-batch",40.3 E5/ml and 40.2 E5/ml
O=C(O)CCC(=O)C(=O)O [α-Keto-glutarate],Viabil.,"[2]; day 0, fed-batch",91%
same,Viabil.,"[2]; day 2, fed-batch",97%
same,Viabil.,"[2]; day 5, fed-batch",97%
same,Viabil.,"[2]; day 8, fed-batch",95%
same,Sp. Gluc cons.,[3]; day 0,94
same,Sp. NH4 prod,[3]; day 0,100 % of control
same,TCD,[3]; day 0,100 % of control
same,VCD,[3]; day 0,100 % of control
same,Viabil.,[3]; day 0,94%
same,Sp. Gluc cons.,[3]; day 3,98
same,Sp. Lactate prod.,[3]; day 3,70 % of control
same,Sp. NH4 prod,[3]; day 3,94 % of control
same,TCD,[3]; day 3,94 % of control
same,VCD,[3]; day 3,103 % of control
same,Viabil.,[3]; day 3,96%
same,Sp. Gluc cons.,[3]; day 5,98
same,Sp. Lactate prod.,[3]; day 5,72 % of control
same,Sp. NH4 prod,[3]; day 5,94 % of control
same,TCD,[3]; day 5,103 % of control
same,Viabil.,[3]; day 5,93%
same,Sp. Gluc cons.,[3]; day 7,95
same,Sp. Lactate prod.,[3]; day 7,72 % of control
same,Sp. NH4 prod,[3]; day 7,95 % of control
same,TCD,[3]; day 7,96 % of control
same,VCD,[3]; day 7,99 % of control
same,Viabil.,[3]; day 7,90%
same,Sp. Gluc cons.,[3]; day 9,109
same,Sp. Lactate prod.,[3]; day 9,79 % of control
same,Sp. NH4 prod,[3]; day 9,103 % of control
same,TCD,[3]; day 9,92 % of control
same,VCD,[3]; day 9,92 % of control
same,Viabil.,[3]; day 9,93%
same,Viabil.,[4]; day 0,96%
same,Viabil.,[4]; day 3,93%
same,Viabil.,[4]; day 5,96%
same,Viabil.,[4]; day 7,84%
same,Viabil.,[4]; day 9,67%
